Results taken from patent publication US7547532B2, “Three-dimensional structure of prostaglandin D synthase and utilization thereof” (Japan Science and Technology Agency, priority 2001, dated 2009).

Columns and labels:
allergic reaction = conditions: known from Matsushita et al. 1998, various experimental models; cited from earlier work
[1] = cited from earlier work
sleep condition = conditions: administered in the ventricle of the brain of a mouse; cited from earlier work
human hematopoietic PGDS = target: T1, human hematopoietic PGDS (Homo sapiens, UniProt O60760, N144M); experiment: Glutathione binding/affinity to PGDS with metal ion; conditions: metal ion in center of PGDS dimer
T1 construct: made in house; host or cells: Escherichia coli BL21 (DE-3), plasmid pT7-7hPGDS
T1 sequence (O60760 2-199 N144M): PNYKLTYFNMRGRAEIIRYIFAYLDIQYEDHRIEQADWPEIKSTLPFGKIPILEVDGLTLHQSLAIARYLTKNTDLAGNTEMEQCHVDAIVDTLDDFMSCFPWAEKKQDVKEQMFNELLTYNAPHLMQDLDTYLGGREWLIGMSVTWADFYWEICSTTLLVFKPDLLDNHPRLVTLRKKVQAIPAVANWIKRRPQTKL

hematopoietic PGDS = hematopoietic PGDS (Homo sapiens, UniProt O60760); experiment: PGDS enzymatic activity: conversion of PGH2 to PGD2 (confirmation of inhibitors); type: biochemical; conditions: metal ion in center of PGDS dimer
Chain of hematopoietic PGDS (O60760 whole entry): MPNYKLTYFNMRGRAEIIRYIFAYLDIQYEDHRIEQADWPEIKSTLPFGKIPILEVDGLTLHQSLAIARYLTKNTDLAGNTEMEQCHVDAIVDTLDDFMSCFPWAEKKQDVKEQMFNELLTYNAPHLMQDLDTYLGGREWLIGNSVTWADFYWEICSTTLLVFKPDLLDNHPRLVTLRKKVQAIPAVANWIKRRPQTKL
From the text: After a candidate compound for inhibition of hematopoietic PGDS is thus selected, the selected compound is contacted with the enzyme in the presence of the substrate (prostaglandin H2) to confirm the compound can inhibit the enzymatic activity (Shimizu, T., Yamamoto, S., and Hayaishi, O. (1979). Purification and properties of prostaglandin D synthase from rat brain. J. Biol. Chem. 254, 5222-5228). The measurement of enzymatic activity is, for example, carried out as follows: The substrate [1-^14C]prostaglandin(PG)H2 is prepared by reacting [1-^14C]arachidonic acid with cyclooxygenase. Since PGH2 is easily decomposed in aqueous solution (half-life: about 5 minutes), it is dried and stored at a low temperature (−80° C.). […] After the development, radioactivity of PGD2 fraction and other fraction are measured and the enzyme activity is calculated from the ratio of conversion to PGD2.
Alternatively, enzyme reaction is carried out using commercially available non-labeled PGH2. After the reaction, PGH2 is decomposed to 12(S)-hydroxy-8,10-trans-5-cis-heptadecatrienolic acid with the treatment by FeCl2 before quantifying with reverse phase HPLC using 11-β-PGE2 as an internal standard or commercially available ELISA to quantify PGD2.

## c1ccc(C(OC2CCN(CCCc3nnn[nH]3)CC2)c2ccccc2)cc1 [HQL-79, 4-benzhydryloxy-1-{3-(1H-tetrazol-5-yl)-propyl}piperidine]
Allergic reaction
  anti-allergic activity: anti-allergic activity

## CCCCC[C@H](O)/C=C/[C@@H]1[C@@H](C/C=C\CCCC(=O)O)[C@@H]2C[C@H]1OO2 [PGH2, prostaglandin H2]
[1]
  half-life in aqueous solution: about 5 minutes

## CCCCC[C@H](O)/C=C/[C@H]1C(=O)C[C@H](O)[C@@H]1C/C=C\CCCC(=O)O [prostaglandin D2, Prostaglandin D2]
Sleep condition
  effect on sleep: sleep is induced

## Calcium
Human hematopoietic PGDS
  influence on glutathione binding: no influence on the glutathione binding
Hematopoietic PGDS
  effect on reaction rate of PGDS enzyme: increases the reaction rate of PGDS enzyme

## Magnesium
Human hematopoietic PGDS
  increase of affinity of glutathione to PGDS: more than 3 times
